Here are results for 47 compounds from patent publication US20240228463A1, “SODIUM CHANNEL INHIBITORS AND METHODS OF DESIGNING SAME” (Genentech, Inc., priority 2021, published 2024).

Structures are written as SMILES.

T1 sequence (Q15858 1-1977 isoform Q15858-3): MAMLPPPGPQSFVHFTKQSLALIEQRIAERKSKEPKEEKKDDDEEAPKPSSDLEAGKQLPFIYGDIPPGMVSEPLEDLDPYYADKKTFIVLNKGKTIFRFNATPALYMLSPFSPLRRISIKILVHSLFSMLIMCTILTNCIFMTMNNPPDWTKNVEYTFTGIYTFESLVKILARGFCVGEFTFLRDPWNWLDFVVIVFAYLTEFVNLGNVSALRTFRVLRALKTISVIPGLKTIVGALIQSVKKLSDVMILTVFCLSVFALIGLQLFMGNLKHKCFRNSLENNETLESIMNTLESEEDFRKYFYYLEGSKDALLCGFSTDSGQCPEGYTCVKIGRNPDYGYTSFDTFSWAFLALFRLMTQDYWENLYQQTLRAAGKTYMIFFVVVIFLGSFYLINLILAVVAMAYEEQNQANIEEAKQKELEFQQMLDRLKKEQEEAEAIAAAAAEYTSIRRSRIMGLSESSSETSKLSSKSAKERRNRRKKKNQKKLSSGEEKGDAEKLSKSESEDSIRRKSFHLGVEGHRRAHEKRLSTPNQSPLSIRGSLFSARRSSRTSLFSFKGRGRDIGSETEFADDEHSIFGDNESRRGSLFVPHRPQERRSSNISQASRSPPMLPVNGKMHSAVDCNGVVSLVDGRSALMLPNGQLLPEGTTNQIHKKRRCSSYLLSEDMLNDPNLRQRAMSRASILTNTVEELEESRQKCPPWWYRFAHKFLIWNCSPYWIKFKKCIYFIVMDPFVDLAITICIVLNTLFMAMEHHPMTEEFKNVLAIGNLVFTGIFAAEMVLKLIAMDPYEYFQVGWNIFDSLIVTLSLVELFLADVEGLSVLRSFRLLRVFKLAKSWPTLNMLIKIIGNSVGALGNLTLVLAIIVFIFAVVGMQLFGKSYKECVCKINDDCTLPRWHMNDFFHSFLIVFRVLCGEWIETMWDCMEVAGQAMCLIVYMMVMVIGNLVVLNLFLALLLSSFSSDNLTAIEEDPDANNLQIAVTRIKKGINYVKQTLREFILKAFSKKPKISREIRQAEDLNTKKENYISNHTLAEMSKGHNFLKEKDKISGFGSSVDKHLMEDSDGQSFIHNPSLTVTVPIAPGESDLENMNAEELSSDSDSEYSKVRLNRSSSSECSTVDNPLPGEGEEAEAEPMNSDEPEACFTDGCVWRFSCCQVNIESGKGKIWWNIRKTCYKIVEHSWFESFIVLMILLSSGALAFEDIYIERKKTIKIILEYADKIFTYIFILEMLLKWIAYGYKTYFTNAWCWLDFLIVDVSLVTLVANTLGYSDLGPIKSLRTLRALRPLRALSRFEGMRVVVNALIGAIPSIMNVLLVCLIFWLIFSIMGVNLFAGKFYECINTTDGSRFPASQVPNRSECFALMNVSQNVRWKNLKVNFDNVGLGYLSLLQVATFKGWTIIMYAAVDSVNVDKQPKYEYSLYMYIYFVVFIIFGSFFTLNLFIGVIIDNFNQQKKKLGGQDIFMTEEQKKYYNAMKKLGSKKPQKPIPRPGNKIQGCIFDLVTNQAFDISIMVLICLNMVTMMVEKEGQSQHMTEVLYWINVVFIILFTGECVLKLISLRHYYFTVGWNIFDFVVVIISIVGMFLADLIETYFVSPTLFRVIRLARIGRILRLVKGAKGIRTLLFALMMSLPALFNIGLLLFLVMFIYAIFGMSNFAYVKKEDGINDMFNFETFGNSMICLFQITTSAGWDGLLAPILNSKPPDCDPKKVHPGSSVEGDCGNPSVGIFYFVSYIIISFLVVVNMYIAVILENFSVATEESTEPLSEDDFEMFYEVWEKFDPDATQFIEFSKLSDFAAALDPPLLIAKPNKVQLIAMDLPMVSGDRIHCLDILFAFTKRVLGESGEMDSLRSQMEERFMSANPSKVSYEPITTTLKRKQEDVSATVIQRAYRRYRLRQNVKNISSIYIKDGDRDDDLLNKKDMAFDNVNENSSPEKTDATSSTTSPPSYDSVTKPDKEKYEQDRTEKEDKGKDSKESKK

One test concerns the target T1, hNaV1.7 (Homo sapiens, UniProt Q15858).
T1 construct: expressed in transfected cells
As to the kind of experiment: Patch voltage clamp electrophysiology (EP), Syncropatch 384PE, Nav1.7 in CHO cells.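 Note: Nav1.7 stably expressed from cDNA in CHO cells, holding potential of −50 mV kept for the entire experiment.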 The class given is cell-based. The following applies: hNaV1.7 EP_SP, holding potential −50 mV, inhibition based on 7.5 min compound incubation. (In general: Patch clamp records ionic current or voltage across a cell membrane.)
With `O=C(NS(=O)(=O)N1CC[C@@H]2[C@@H](C1)OCC(=O)N2c1ccccc1)c1cc(Cl)c(OCC2CCCC2)cc1F` (single isomer, unassigned) [Example 44], the IC50 is 0.13 µM.
`COc1cc(-c2cccc(C(F)(F)F)c2)c(F)cc1N1C(=O)CO[C@@H]2CN(S(=O)(=O)Nc3noc4ccc(C5CC5)cc34)CC[C@H]21` (single isomer, unassigned) [Example 93] returned an IC50 of 0.11 µM.
As to `COc1cc(-c2cccc(C(F)(F)F)c2)c(F)cc1N1C(=O)CO[C@H]2CN(S(=O)(=O)Nc3noc4ccc(C5CC5)cc34)CC[C@@H]21` (single isomer, unassigned) [Example 94], the IC50 stood at 0.24 µM.

The test is the same for the next values; noted with them: holding potential −50 mV, inhibition based on 7.5 min compound incubation, read-out: hNaV1.7 EP_SP.
For the compound `O=C(NS(=O)(=O)N1CCC(OC2CCCNC2)CC1)c1cc(Cl)c(OCC2CCCC2)cc1F` (racemic) [Example 51, 5-chloro-4-(cyclopentylmethoxy)-2-fluoro-N-((4-(piperidin-3-yloxy)piperidin-1-yl)sulfonyl)benzamide 2,2,2-trifluoroacetate], the IC50 turned out to be 0.068 µM.
Take `O=C(NS(=O)(=O)[C@@H]1C[C@H]1c1ccccc1)c1cc(Cl)c(OCC2CCCC2)cc1F` (relative stereo) [Example 284, 5-chloro-4-(cyclopentylmethoxy)-2-fluoro-N-((trans-2-phenylcyclopropyl)sulfonyl)benzamide]: the IC50 stood at 0.12 µM.
Consider `C[C@H]1Cc2ccccc2N(S(=O)(=O)NC(=O)c2cc(Cl)c(OCC3CCCC3)cc2F)C1` (single isomer, unassigned) [Example 16], for which the IC50 amounted to 0.24 µM.
Regarding `C[C@@H]1Cc2ccccc2N(S(=O)(=O)NC(=O)c2cc(Cl)c(OCC3CCCC3)cc2F)C1` (single isomer, unassigned) [Example 17], the IC50 is 0.1 µM.
`C[C@@H]1CCc2ccccc2N1S(=O)(=O)NC(=O)c1cc(Cl)c(OCC2CCCC2)cc1F` (single isomer, unassigned) [Example 18]: the IC50 was found to be 0.024 µM.
The same measure, in the same setting: as for `NC[C@@H]1CN(S(=O)(=O)NC(=O)c2cc(Cl)c(OCC3CCCC3)cc2F)CCO1` (single isomer, unassigned) [Example 24, 2,2,2-trifluoroacetate], the figure is 0.1 µM.
As for `NC[C@@H]1CN(S(=O)(=O)NC(=O)c2cc(C3CC3)c(OCC3CCCC3)cc2F)CCO1` (single isomer, unassigned) [Example 25, 2,2,2-trifluoroacetate], the IC50 is 0.015 µM.
Regarding `CNC[C@@H]1CN(S(=O)(=O)NC(=O)c2cc(Cl)c(OCC3CCCC3)cc2F)CCO1` (single isomer, unassigned) [Example 26], the IC50 stood at 0.19 µM.
As for `NC[C@H]1CCCN(S(=O)(=O)NC(=O)c2cc(Cl)c(OCC3CCCC3)cc2F)C1` (single isomer, unassigned) [Example 27, 2,2,2-trifluoroacetate], the IC50 was 0.09 µM.
As for `CN(C)C[C@@H]1CN(S(=O)(=O)NC(=O)c2cc(Cl)c(OCC3CCCC3)cc2F)CCO1` (single isomer, unassigned) [Example 28], the IC50 was 0.23 µM.
The same measure, in the same setting: with `O=C(NS(=O)(=O)N1CCC(O[C@@H]2CCNC2)CC1)c1cc(C2CC2)c(OCC2CCCC2)cc1F` (single isomer, unassigned) [Example 29, 2,2,2-trifluoroacetate] the figure was 0.027 µM; with `O=C(NS(=O)(=O)N1CC(O[C@@H]2CCNC2)C1)c1cc(Cl)c(OCC2CCCC2)cc1F` (single isomer, unassigned) [Example 31, 2,2,2-trifluoroacetate], 0.39 µM; with `O=C(NS(=O)(=O)N1CCC(O[C@@H]2CCNC2)CC1)c1cc(Cl)c(OCC2CCCC2)cc1F` (single isomer, unassigned) [Example 36, 2,2,2-trifluoroacetate], 0.2 µM.
For `O=C(NS(=O)(=O)N1CCC(O[C@H]2CCNC2)CC1)c1cc(Cl)c(OCC2CCCC2)cc1F` (single isomer, unassigned) [Example 37, 2,2,2-trifluoroacetate], the IC50 amounted to 0.077 µM.
As to `CN1CC[C@H](OC2CCN(S(=O)(=O)NC(=O)c3cc(Cl)c(OCC4CCCC4)cc3F)CC2)C1` (single isomer, unassigned) [Example 38], the IC50 was determined as 0.039 µM.
Still for that read-out and setting: with `O=C(NS(=O)(=O)N1CC(O[C@@H]2CCCNC2)C1)c1cc(Cl)c(OCC2CCCC2)cc1F` (single isomer, unassigned) [Example 48] the figure was 0.86 µM; with `O=C(NS(=O)(=O)N1CC(O[C@@H]2CCCNC2)C1)c1cc(Cl)c(OCC2CCCC2)cc1F` (single isomer, unassigned) [Example 49], 0.86 µM.
With `O=C(NS(=O)(=O)c1ccc(O[C@@H]2CCNC2)cc1)c1cc(Cl)c(OCC2CCCC2)cc1F` (single isomer, unassigned) [Example 69], the IC50 came out at 0.13 µM.
The same measure, in the same setting: as for `O=S(=O)(Nc1noc2cc(OCC3CCCC3)c(Cl)cc12)N1CCC(O[C@H]2CCNC2)CC1` (single isomer, unassigned) [Example 90, 2,2,2-trifluoroacetate], the figure is 0.4 µM.
As for `O=S(=O)(Nc1noc2cc(OCC3CCCC3)c(C3CC3)cc12)N1CCC(O[C@@H]2CCNC2)CC1` (single isomer, unassigned) [Example 91, 2,2,2-trifluoroacetate], the IC50 stood at 0.79 µM.
With `O=S(=O)(Nc1noc2cc(OCC3CCCC3)c(C3CC3)cc12)N1CCC(O[C@H]2CCNC2)CC1` (single isomer, unassigned) [Example 92, 2,2,2-trifluoroacetate], the IC50 was found to be 0.069 µM.
For `CN(C)C1CCCN(c2ccc(S(=O)(=O)NC(=O)c3cc(Cl)c(OCC4CCCC4)cc3F)cc2)C1` (single isomer, unassigned) [Example 209], the IC50 amounted to 0.11 µM.
For the compound `O=C(NS(=O)(=O)N1CC[C@H](OC2CCNCC2)C1)c1cc(Cl)c(OCC2CCCC2)cc1F` (single isomer, unassigned) [Example 212], the IC50 was 0.087 µM.
As for `O=C(NS(=O)(=O)N1CC[C@@H](OC2CCNCC2)C1)c1cc(Cl)c(OCC2CCCC2)cc1F` (single isomer, unassigned) [Example 213], the IC50 came out at 0.42 µM.
Consider `N[C@]12C[C@H]1CN(S(=O)(=O)NC(=O)c1cc(Cl)c(OCC3CCCC3)cc1F)C2` (single isomer, unassigned) [Example 217, 2,2,2-trifluoroacetate], for which the IC50 turned out to be 0.37 µM.
In the case of `N[C@@]12C[C@@H]1CN(S(=O)(=O)NC(=O)c1cc(Cl)c(OCC3CCCC3)cc1F)C2` (single isomer, unassigned) [Example 218, 2,2,2-trifluoroacetate], the IC50 was determined as 0.56 µM.
`N[C@H]1CCCCN(S(=O)(=O)NC(=O)c2cc(Cl)c(OCC3CCCC3)cc2F)C1` (single isomer, unassigned) [Example 219, 2,2,2-trifluoroacetate]: the IC50 was 0.65 µM.
In the case of `O=C(NS(=O)(=O)N1CC[C@@H]2CCC[C@H]21)c1cc(Cl)c(OCC2CCCC2)cc1F` (single isomer, unassigned) [Example 220], the IC50 came out at 0.014 µM.
As for `O=C(NS(=O)(=O)N1CC[C@H]2CCC[C@@H]21)c1cc(Cl)c(OCC2CCCC2)cc1F` (single isomer, unassigned) [Example 221], the IC50 worked out at 0.016 µM.
In the case of `C[C@@H]1CCCN1S(=O)(=O)NC(=O)c1cc(Cl)c(OCC2CCCC2)cc1F` (single isomer, unassigned) [Example 222], the IC50 stood at 0.033 µM.
On to `C[C@H]1CCCN1S(=O)(=O)NC(=O)c1cc(Cl)c(OCC2CCCC2)cc1F` (single isomer, unassigned) [Example 223], for which the IC50 is 0.039 µM.
As for `C[C@H]1CCCCN1S(=O)(=O)NC(=O)c1cc(Cl)c(OCC2CCCC2)cc1F` (single isomer, unassigned) [Example 224], the IC50 came to 0.04 µM.
With `C[C@@H]1CCCCN1S(=O)(=O)NC(=O)c1cc(Cl)c(OCC2CCCC2)cc1F` (single isomer, unassigned) [Example 225], the IC50 turned out to be 0.01 µM.
For the compound `COC[C@H](C)S(=O)(=O)NC(=O)c1cc(Cl)c(OCC2CCCC2)cc1F` (single isomer, unassigned) [Example 248], the IC50 came out at 0.76 µM.
Same read-out and setting: with `COC[C@@H](C)S(=O)(=O)NC(=O)c1cc(Cl)c(OCC2CCCC2)cc1F` (single isomer, unassigned) [Example 249] the figure was 0.11 µM; with `C[C@H]1C[C@@H]1S(=O)(=O)NC(=O)c1cc(Cl)c(OCC2CCCC2)cc1F` (single isomer, unassigned) [Example 250], 0.0098 µM.
Take `C[C@@H]1C[C@H]1S(=O)(=O)NC(=O)c1cc(Cl)c(OCC2CCCC2)cc1F` (single isomer, unassigned) [Example 251]: the IC50 turned out to be 0.016 µM.
`CC[C@H](C)S(=O)(=O)NC(=O)c1cc(Cl)c(OCC2CCCC2)cc1F` (single isomer, unassigned) [Example 254]: the IC50 amounted to 0.014 µM.
Same read-out and setting: with `CC[C@@H](C)S(=O)(=O)NC(=O)c1cc(Cl)c(OCC2CCCC2)cc1F` (single isomer, unassigned) [Example 255] the figure was 0.026 µM; with `CN1CC[C@H](OC2CCN(S(=O)(=O)NC(=O)c3cc(Cl)c(OCC4CCCC4)cc3F)CC2)C1` (single isomer, unassigned) [Example 326], 0.23 µM.
Turning to `O=C(NS(=O)(=O)N1CCC(OC2CCNC2)CC1)c1cc(C2CC2)c(OCC2CCCC2)cc1F` (stereo in doubt) [Example 30, (S)-4-(cyclopentylmethoxy)-5-cyclopropyl-2-fluoro-N-((4-(pyrrolidin-3-yloxy)piperidin-1-yl)sulfonyl)benzamide 2,2,2-trifluoroacetate], the IC50 amounted to 0.016 µM.
As for `O=C(NS(=O)(=O)c1ccc(OCC2CCNC2)cc1)c1cc(Cl)c(OCC2CCCC2)cc1F` (stereo in doubt) [Example 302, (R)-5-chloro-4-(cyclopentylmethoxy)-2-fluoro-N-((4-(pyrrolidin-3-ylmethoxy)phenyl)sulfonyl)benzamide], the IC50 is 0.12 µM.
Same read-out and setting: as for `C[C@H]1CCc2ccccc2N1S(=O)(=O)NC(=O)c1cc(Cl)c(OCC2CCCC2)cc1F` [(S) enantiomer of Example 18], the figure is 0.5 µM.
In the case of `CN1CC(OC2CCN(S(=O)(=O)NC(=O)c3cc(Cl)c(OCC4CCCC4)cc3F)CC2)C1` [Example 1, 5-chloro-4-(cyclopentylmethoxy)-2-fluoro-N-((4-((1-methylazetidin-3-yl)oxy)piperidin-1-yl)sulfonyl)benzamide], the IC50 stood at 0.11 µM.
